Data: patent US6440459B1, “Paroxetine maleate polymorph and pharmaceutical compositions containing it” (Medichem, S.A., priority 1998, dated 2002)

Experiment: Accelerated stability tests (storage at 40° C. and 75% Relative Humidity, HPLC analysis)
Format: physicochemical
Settings: for Degradation in accelerated stability tests: high temperature and humidity conditions, periods of up to six months (summary statement); for Stability (degradation by HPLC) at the end of one month of storage / Stability (degradation by HPLC) at the end of six months of storage: solid in two-ply polythene bags, 40° C., 75% Relative Humidity, HPLC vs time of packaging
Protocol: Accelerated Stability Tests Samples of paroxetine maleate Form A and Form B were packaged in two-ply polythene bags and stored at 40° C. and 75% Relative Humidity. The samples were analyzed at the time of packaging by HPLC and were analyzed with the same technique at the end of one month and six months of storage.

Structure (SMILES)	Degradation in accelerated stability tests	Stability (degradation by HPLC) at the end of one month of storage	Stability (degradation by HPLC) at the end of six months of storage
Fc1ccc([C@@H]2CCNC[C@H]2COc2ccc3c(c2)OCO3)cc1.O=C(O)/C=C\C(=O)O [Form A, (3S-trans)-3-[(1,3-benzodioxol-5-yloxy)methyl]-4-(4-fluorophenyl)piperidine acid maleate]	notable degradation	clear signs of degradation	high degree of degradation
Fc1ccc([C@@H]2CCNC[C@H]2COc2ccc3c(c2)OCO3)cc1.O=C(O)/C=C\C(=O)O [Form B, (3S-trans)-3-[(1,3-benzodioxol-5-yloxy)methyl]-4-(4-fluorophenyl)piperidine acid maleate]	absence of significant degradation	substantially unaltered	substantially unaltered
